# Key:
# Assay in all cases: relative viability (nuclei count vs DMSO), 5 days (fraction); higher = more cells survive
# HCC-44 = system: HCC-44
# Method in brief: (§1)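 Relative viability equals treated-well nuclei counts divided by vehicle-well nuclei counts. Counts came from 4× images of lung cancer cell lines grown in 1536-well plates for 5 days after pin-tool dosing on the day after seeding. Dosing used one drug alone or a fixed anchor-drug dose plus five library-drug doses (not always all listed) in √10 steps, and values are medians of duplicate plates.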
# NCI-H1437 = system: NCI-H1437
# Method in brief: as §1
# NCI-H1648 = system: NCI-H1648
# Method in brief: as §1
# NCI-H522 = system: NCI-H522
# Method in brief: as §1
# HCC-366 = system: HCC-366
# Method in brief: as §1
# A549 = system: A549
# Method in brief: as §1
# Calu-6 = system: Calu-6
# Method in brief: as §1
# NCI-H1703 = system: NCI-H1703
# Method in brief: as §1
# NCI-H1299 = system: NCI-H1299
# Method in brief: as §1
# EBC-1 = system: EBC-1
# Method in brief: as §1
# IA-LM = system: IA-LM
# Method in brief: as §1
compound,measurement,setting,value
O=C(O)c1ccc(-c2c[nH]c3ncc(-c4ccccc4)cc23)cc1C1CCCC1 + CC(=O)Nc1cccc(-n2c(=O)n(C3CC3)c(=O)c3c(Nc4ccc(I)cc4F)n(C)c(=O)c(C)c32)c1 [Trametinib] (partner 0.02 µM),relative viability,HCC-44; first compound 0.04 µM,1
same,relative viability,HCC-44; first compound 0.1265 µM,1.02
same,relative viability,HCC-44; first compound 0.4 µM,0.908
same,relative viability,HCC-44; first compound 1.265 µM,1.01
same,relative viability,NCI-H1437; first compound 0.04 µM,0.476
same,relative viability,NCI-H1437; first compound 0.1265 µM,0.609
same,relative viability,NCI-H1437; first compound 0.4 µM,0.541
same,relative viability,NCI-H1437; first compound 1.265 µM,0.202
same,relative viability,NCI-H1648; first compound 0.04 µM,0.589
same,relative viability,NCI-H1648; first compound 0.1265 µM,0.448
same,relative viability,NCI-H1648; first compound 0.4 µM,0.494
same,relative viability,NCI-H522; first compound 0.04 µM,0.696
same,relative viability,NCI-H522; first compound 0.1265 µM,0.761
same,relative viability,NCI-H522; first compound 0.4 µM,0.763
same,relative viability,NCI-H522; first compound 1.265 µM,0.768
same,relative viability,HCC-366; first compound 0.04 µM,0.343
same,relative viability,HCC-366; first compound 0.1265 µM,0.466
same,relative viability,HCC-366; first compound 0.4 µM,0.311
same,relative viability,HCC-366; first compound 1.265 µM,0.309
O=C(O)c1ccc(-c2c[nH]c3ncc(-c4ccccc4)cc23)cc1C1CCCC1 + CC(=O)c1c(C)c2cnc(Nc3ccc(N4CCNCC4)cn3)nc2n(C2CCCC2)c1=O [Palbociclib] (partner 0.5 µM),relative viability,HCC-44; first compound 0.04 µM,0.967
same,relative viability,HCC-44; first compound 0.1265 µM,0.938
same,relative viability,HCC-44; first compound 0.4 µM,0.875
same,relative viability,HCC-44; first compound 1.265 µM,0.805
same,relative viability,NCI-H1437; first compound 0.04 µM,0.326
same,relative viability,NCI-H1437; first compound 0.1265 µM,0.319
same,relative viability,NCI-H1437; first compound 0.4 µM,0.311
same,relative viability,NCI-H1437; first compound 1.265 µM,0.193
same,relative viability,NCI-H1648; first compound 0.04 µM,0.285
same,relative viability,NCI-H1648; first compound 0.1265 µM,0.294
same,relative viability,NCI-H1648; first compound 0.4 µM,0.27
same,relative viability,NCI-H522; first compound 0.04 µM,0.977
same,relative viability,NCI-H522; first compound 0.1265 µM,1.02
same,relative viability,NCI-H522; first compound 0.4 µM,1.06
same,relative viability,NCI-H522; first compound 1.265 µM,1.1
same,relative viability,HCC-366; first compound 0.04 µM,0.442
same,relative viability,HCC-366; first compound 0.1265 µM,0.43
same,relative viability,HCC-366; first compound 0.4 µM,0.416
same,relative viability,HCC-366; first compound 1.265 µM,0.346
O=C(O)c1ccc(-c2c[nH]c3ncc(-c4ccccc4)cc23)cc1C1CCCC1 + Nc1nc2[nH]cc(CCc3ccc(C(=O)N[C@@H](CCC(=O)O)C(=O)O)cc3)c2c(=O)[nH]1 [Pemetrexed] (partner 0.2 µM),relative viability,HCC-44; first compound 0.04 µM,0.654
same,relative viability,HCC-44; first compound 0.1265 µM,0.578
same,relative viability,HCC-44; first compound 0.4 µM,0.68
same,relative viability,HCC-44; first compound 1.265 µM,0.598
same,relative viability,NCI-H1437; first compound 0.04 µM,0.338
same,relative viability,NCI-H1437; first compound 0.1265 µM,0.33
same,relative viability,NCI-H1437; first compound 0.4 µM,0.311
same,relative viability,NCI-H1437; first compound 1.265 µM,0.295
same,relative viability,NCI-H1648; first compound 0.04 µM,0.732
same,relative viability,NCI-H1648; first compound 0.1265 µM,0.853
same,relative viability,NCI-H1648; first compound 0.4 µM,0.681
same,relative viability,NCI-H522; first compound 0.04 µM,0.829
same,relative viability,NCI-H522; first compound 0.1265 µM,1.04
same,relative viability,NCI-H522; first compound 0.4 µM,0.812
same,relative viability,NCI-H522; first compound 1.265 µM,0.928
same,relative viability,HCC-366; first compound 0.04 µM,0.178
same,relative viability,HCC-366; first compound 0.1265 µM,0.203
same,relative viability,HCC-366; first compound 0.4 µM,0.149
same,relative viability,HCC-366; first compound 1.265 µM,0.187
CC1(C)CCC(c2ccc(Cl)cc2)=C(CN2CCN(c3ccc(C(=O)NS(=O)(=O)c4ccc(N[C@H](CCN5CCOCC5)CSc5ccccc5)c(S(=O)(=O)C(F)(F)F)c4)cc3)CC2)C1 [Navitoclax] + CS(=O)(=O)N1CCN(Cc2cc3nc(-c4cccc5[nH]ncc45)nc(N4CCOCC4)c3s2)CC1 [Pictilisib] (partner 1 µM),relative viability,A549; first compound 0.005 µM,0.418
same,relative viability,A549; first compound 0.01581 µM,0.425
same,relative viability,A549; first compound 0.05 µM,0.685
same,relative viability,A549; first compound 0.1581 µM,0.51
same,relative viability,A549; first compound 0.5 µM,0.504
same,relative viability,HCC-44; first compound 0.005 µM,0.656
same,relative viability,HCC-44; first compound 0.01581 µM,0.641
same,relative viability,HCC-44; first compound 0.05 µM,0.849
same,relative viability,HCC-44; first compound 0.1581 µM,0.57
same,relative viability,HCC-44; first compound 0.5 µM,0.456
same,relative viability,Calu-6; first compound 0.005 µM,0.891
same,relative viability,Calu-6; first compound 0.01581 µM,1.03
same,relative viability,Calu-6; first compound 0.05 µM,1.01
same,relative viability,Calu-6; first compound 0.1581 µM,0.775
same,relative viability,Calu-6; first compound 0.5 µM,0.752
same,relative viability,NCI-H1703; first compound 0.005 µM,0.244
same,relative viability,NCI-H1703; first compound 0.01581 µM,0.28
same,relative viability,NCI-H1703; first compound 0.05 µM,0.263
same,relative viability,NCI-H1703; first compound 0.1581 µM,0.239
same,relative viability,NCI-H1703; first compound 0.5 µM,0.245
same,relative viability,NCI-H1437; first compound 0.005 µM,0.409
same,relative viability,NCI-H1437; first compound 0.01581 µM,0.537
same,relative viability,NCI-H1437; first compound 0.05 µM,0.501
same,relative viability,NCI-H1437; first compound 0.1581 µM,0.445
same,relative viability,NCI-H1437; first compound 0.5 µM,0.477
same,relative viability,NCI-H1299; first compound 0.005 µM,0.717
same,relative viability,NCI-H1299; first compound 0.01581 µM,0.943
same,relative viability,NCI-H1299; first compound 0.05 µM,0.874
same,relative viability,NCI-H1299; first compound 0.1581 µM,0.822
same,relative viability,NCI-H1299; first compound 0.5 µM,0.819
same,relative viability,EBC-1; first compound 0.005 µM,0.411
same,relative viability,EBC-1; first compound 0.01581 µM,0.378
same,relative viability,EBC-1; first compound 0.05 µM,0.448
same,relative viability,EBC-1; first compound 0.1581 µM,0.575
same,relative viability,EBC-1; first compound 0.5 µM,0.138
same,relative viability,IA-LM; first compound 0.005 µM,0.466
same,relative viability,IA-LM; first compound 0.01581 µM,0.321
same,relative viability,IA-LM; first compound 0.05 µM,0.404
same,relative viability,IA-LM; first compound 0.1581 µM,0.457
same,relative viability,IA-LM; first compound 0.5 µM,0.292
same,relative viability,HCC-366; first compound 0.005 µM,0.159
same,relative viability,HCC-366; first compound 0.01581 µM,0.174
same,relative viability,HCC-366; first compound 0.05 µM,0.207
same,relative viability,HCC-366; first compound 0.1581 µM,0.107
same,relative viability,HCC-366; first compound 0.5 µM,0.15

# Source: the supplement of paper PMC10307832
